Data from the supplement of paper PMC11451515.

System: SEM cells
Assay: cell viability relative to DMSO control; higher = less cytotoxic
Conditions: 48 h
In short: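 Cells were incubated for 48 h at 37°C before CellTiter-Glo One luminescence was read. The cells were NOMO1 or SEM (500 cells/well) or P12-Ichikawa (1000 cells/well) leukemia cells, adapted for at least four passages in each medium and seeded in 1536-well plates (5 μl). Dosing used library compounds in DMSO applied by pin over 11 threefold points, 47 μM to 0.79 nM. Viability is the per-plate percentage of DMSO wells, with cell-free wells as background.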

[1] = HPLM + 10% dialyzed FBS, 0.000781 µM
[2] = HPLM + 10% dialyzed FBS, 0.00234 µM
[3] = HPLM + 10% dialyzed FBS, 0.00702 µM
[4] = HPLM + 10% dialyzed FBS, 0.0211 µM
[5] = HPLM + 10% dialyzed FBS, 0.0632 µM
[6] = HPLM + 10% dialyzed FBS, 0.19 µM
[7] = HPLM + 10% dialyzed FBS, 0.569 µM
[8] = HPLM + 10% dialyzed FBS, 1.71 µM
[9] = HPLM + 10% dialyzed FBS, 5.12 µM
[10] = HPLM + 10% dialyzed FBS, 15.4 µM
[11] = HPLM + 10% dialyzed FBS, 46.1 µM
[12] = RPMI 5 mM glucose + 10% FBS, 0.000781 µM
[13] = RPMI 5 mM glucose + 10% FBS, 0.00234 µM
[14] = RPMI 5 mM glucose + 10% FBS, 0.00702 µM
[15] = RPMI 5 mM glucose + 10% FBS, 0.0211 µM
[16] = RPMI 5 mM glucose + 10% FBS, 0.0632 µM
[17] = RPMI 5 mM glucose + 10% FBS, 0.19 µM
[18] = RPMI 5 mM glucose + 10% FBS, 0.569 µM
[19] = RPMI 5 mM glucose + 10% FBS, 1.71 µM
[20] = RPMI 5 mM glucose + 10% FBS, 5.12 µM
[21] = RPMI 5 mM glucose + 10% FBS, 15.4 µM
[22] = RPMI 5 mM glucose + 10% FBS, 46.1 µM
[23] = RPMI 5 mM glucose + 10% dialyzed FBS, 0.000781 µM
[24] = RPMI 5 mM glucose + 10% dialyzed FBS, 0.00234 µM
[25] = RPMI 5 mM glucose + 10% dialyzed FBS, 0.00702 µM
[26] = RPMI 5 mM glucose + 10% dialyzed FBS, 0.0211 µM
[27] = RPMI 5 mM glucose + 10% dialyzed FBS, 0.0632 µM
[28] = RPMI 5 mM glucose + 10% dialyzed FBS, 0.19 µM
[29] = RPMI 5 mM glucose + 10% dialyzed FBS, 0.569 µM
[30] = RPMI 5 mM glucose + 10% dialyzed FBS, 1.71 µM
[31] = RPMI 5 mM glucose + 10% dialyzed FBS, 5.12 µM
[32] = RPMI 5 mM glucose + 10% dialyzed FBS, 15.4 µM
[33] = RPMI 5 mM glucose + 10% dialyzed FBS, 46.1 µM

| Structure (SMILES) | cell viability [1] [%] | cell viability [2] [%] | cell viability [3] [%] | cell viability [4] [%] | cell viability [5] [%] | cell viability [6] [%] | cell viability [7] [%] | cell viability [8] [%] | cell viability [9] [%] | cell viability [10] [%] | cell viability [11] [%] | cell viability [12] [%] | cell viability [13] [%] | cell viability [14] [%] | cell viability [15] [%] | cell viability [16] [%] | cell viability [17] [%] | cell viability [18] [%] | cell viability [19] [%] | cell viability [20] [%] | cell viability [21] [%] | cell viability [22] [%] | cell viability [23] [%] | cell viability [24] [%] | cell viability [25] [%] | cell viability [26] [%] | cell viability [27] [%] | cell viability [28] [%] | cell viability [29] [%] | cell viability [30] [%] | cell viability [31] [%] | cell viability [32] [%] | cell viability [33] [%] |
| --- | --- | --- | --- | --- | --- | --- | --- | --- | --- | --- | --- | --- | --- | --- | --- | --- | --- | --- | --- | --- | --- | --- | --- | --- | --- | --- | --- | --- | --- | --- | --- | --- | --- |
| C[S+](=O)([O-])c1ccc(-c2cnc(N)c(C(=O)Nc3ccccc3)n2)cc1 | 99.6 | 98.3 | 115 | 107 | 123 | 106 | 127 | 110 | 95.2 | 23.7 | 20.2 | 99.1 | 87.6 | 90.7 | 105 | 107 | 133 | 129 | 119 | 103 | 33.1 | 25.3 | 98.5 | 103 | 98.5 | 99.6 | 96.2 | 111 | 99.8 | 105 | 82.7 | 16 | 15.4 |
| C=CCc1cccc(/C=N/NC(=O)CN2CCN(Cc3ccccc3)CC2)c1O | 124 | 122 | 128 | 137 | 132 | 124 | 144 | 89.4 | 103 | 29.3 | 8.81 | 124 | 114 | 124 | 122 | 131 | 114 | 131 | 105 | 95.4 | 54.8 | 8.05 |  |  |  |  |  |  |  |  |  |  |  |
| C/C(O)=C(\C#N)C(=O)Nc1cc(Br)ccc1Br | 108 | 102 | 112 | 107 | 112 | 110 | 107 | 109 | 108 | 32.2 | 75.4 | 122 | 104 | 104 | 106 | 119 | 112 | 99 | 113 | 106 | 32.8 | 84.9 | 112 | 110 | 108 | 118 | 107 | 108 | 105 | 111 | 99 | 32 | 70.5 |
| CC(C)c1ccc(Cn2ccc3c4c(N)nc(NC5CC5)nc4ccc32)cc1 | 99.5 | 100 | 113 | 100 | 113 | 107 | 67.6 | 53.2 | 37.5 | 31.9 | 6.32 | 107 | 114 | 120 | 80.5 | 106 | 120 | 102 | 110 | 35.5 | 19.5 | 8.49 | 97.7 | 113 | 123 | 80.5 | 125 | 124 | 134 | 119 | 46.7 | 33.3 | 9.93 |
| CC(C)c1cnn2c(NCc3ccccc3)cc(NCCCCCCN)nc12 | 121 | 126 | 121 | 117 | 111 | 111 | 119 | 120 | 118 | 106 | 84.9 | 89.8 | 77.3 | 105 | 88.1 | 82.3 | 93.9 | 83.5 | 96.9 | 88.2 | 76.3 | 77.4 | 108 | 109 | 120 | 121 | 98.4 | 117 | 112 | 115 | 96.4 | 114 | 81.8 |
| C[C@]12CC[C@@H]3c4ccc(O)cc4CC[C@H]3[C@@H]1C[C@@H](O)[C@@H]2O | 105 | 116 | 108 | 119 | 113 | 121 | 113 | 116 | 113 | 105 | 91.3 | 86.9 | 83.6 | 97.3 | 95.6 | 91.5 | 89.3 | 91.8 | 79.7 | 90.9 | 82.6 | 66.4 | 127 | 120 | 114 | 128 | 129 | 115 | 126 | 106 | 112 | 116 | 92.4 |
| COC1=CC=C(C=C1O)C/2=C/C(=O)C3=C(O2)C=C(O)C=C3O | 98 | 89.5 | 85.9 | 95.2 | 98.4 | 97.9 | 92.4 | 93.7 | 79.6 | 65.7 | 60.6 | 103 | 95.4 | 113 | 94.3 | 106 | 113 | 110 | 113 | 94.8 | 87.9 | 63.7 | 97.6 | 94.8 | 105 | 104 | 102 | 87.7 | 111 | 119 | 101 | 81.3 | 56.8 |
| COc1cccc([C@@H](C)NCCCc2ccccc2Cl)c1 | 88.5 | 90.3 | 95.2 | 105 | 106 | 95.8 | 81.8 | 97.6 | 107 | 96.3 | 101 | 82.6 | 100 | 79.9 | 100 | 94 | 94.9 | 84.2 | 78.7 | 97.4 | 100 | 93.5 | 81.2 | 112 | 92 | 101 | 94 | 114 | 97.2 | 95.1 | 98.6 | 108 | 99.6 |
| CC(C)c1cc(C(=O)N2Cc3ccc(CN4CCN(C)CC4)cc3C2)c(O)cc1O |  |  |  |  |  |  |  |  |  |  |  | 104 | 105 | 107 | 17.8 | 112 | 107 | 31.1 | 23.5 | 21.5 | 23.1 | 18.3 | 125 | 120 | 120 | 20.5 | 106 | 99.9 | 47.2 | 32.4 | 29.8 | 28.8 | 25.9 |
| Cc1cnc(C(=O)O)c[n+]1[O-] |  |  |  |  |  |  |  |  |  |  |  | 77.1 | 88.9 | 81 | 87 | 85.7 | 92.1 | 101 | 87.3 | 99.5 | 87.8 | 72.6 | 121 | 118 | 92.7 | 112 | 135 | 126 | 133 | 128 | 120 | 114 | 99.3 |
| C[S+](=O)([O-])c1cccc(CNc2nc(Nc3ccc4c(c3)CCC(=O)N4)ncc2C(F)(F)F)c1 |  |  |  |  |  |  |  |  |  |  |  | 112 | 126 | 119 | 127 | 105 | 125 | 109 | 71.5 | 63.1 | 30.6 | 8.79 | 111 | 114 | 98.4 | 110 | 101 | 94.9 | 87.3 | 74.4 | 49.9 | 20.5 | 4.38 |
| C[C@H]1[C@@H](C(=O)C[C@H]2O[C@@H]3O[C@]4(C)CC[C@H]5[C@H](C)CC[C@@H]([C@H]2C)[C@@]35OO4)O[C@@H]2O[C@]3(C)CC[C@H]4[C@H](C)CC[C@@H]1[C@@]24OO3 | 92.6 | 106 | 95.1 | 83.9 | 102 | 84.1 | 84.6 | 91.5 | 89 | 75.4 | 6.82 | 87.2 | 112 | 116 | 109 | 113 | 107 | 105 | 96.8 | 72.1 | 53.1 | 5.74 | 96.3 | 114 | 115 | 99.7 | 113 | 109 | 116 | 96.9 | 92.9 | 75 | 7.69 |
| O=C(Nc1ncc(SCCN2CCCC2)s1)[C@]1(c2ccc([S+](=O)([O-])C3CC3)cc2)C[C@H]1C1CCCCC1 | 131 | 111 | 120 | 124 | 111 | 108 | 109 | 63.2 | 98.9 | 73.9 | 27.5 | 113 | 117 | 126 | 123 | 120 | 126 | 115 | 71.2 | 123 | 114 | 41.8 | 129 | 106 | 120 | 118 | 117 | 117 | 138 | 51.5 | 110 | 105 | 52.5 |
| Oc1cccc(-c2nc(N3CCOCC3)c3oc4ncccc4c3n2)c1 | 108 | 96.3 | 102 | 99.1 | 92.6 | 80.7 | 54.8 | 54.5 | 61.5 | 57.3 | 5.23 | 102 | 102 | 120 | 106 | 93.3 | 77.9 | 58.4 | 60.9 | 8.23 | 6.63 | 4.34 |  |  |  |  |  |  |  |  |  |  |  |
| CN[C@@H]1Cc2cccc3[nH]c(=O)n(c23)C1 | 108 | 119 | 105 | 121 | 98.8 | 100 | 110 | 103 | 104 | 92.8 | 95.4 |  |  |  |  |  |  |  |  |  |  |  |  |  |  |  |  |  |  |  |  |  |  |
| Cc1ccc([S+](=O)([O-])Nc2nc3ccccc3nc2Nc2ccc3nsnc3c2)cc1 | 81.7 | 90.3 | 99.9 | 88.2 | 92.6 | 93.5 | 87.8 | 90.5 | 78.6 | 73.5 | 59.1 | 102 | 100 | 102 | 112 | 107 | 101 | 97.8 | 105 | 78.7 | 81.3 | 54.9 | 95 | 87.9 | 84.8 | 96 | 88.2 | 84.4 | 89.7 | 96.4 | 83.2 | 61.8 | 65.8 |
| C[C@]12CC[C@H]3[C@@H](CCC/4=C/C(=O)CC[C@]34C)[C@@H]1CC[C@@H]2O | 94.2 | 120 | 124 | 128 | 118 | 139 | 122 | 120 | 136 | 125 | 130 | 107 | 110 | 118 | 112 | 139 | 129 | 118 | 133 | 140 | 157 | 109 | 129 | 113 | 120 | 121 | 112 | 130 | 153 | 134 | 130 | 131 | 145 |
